The assay has as its target T1, human full-length recombinant PKC βII (Homo sapiens, UniProt P05771).
T1 construct: Active human full-length recombinant PKC βII; purchased Invitrogen GmbH, Darmstadt, Germany
Nature of the assay: Determination of PKC βII inhibition (Caliper mobility-shift kinase assay, Fluorescein-RFARKGSLRQKNV peptide substrate). Format: biochemical. Particulars: example compounds at a final concentration of 1.14 μM (±0.15 μM). Put shortly:
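Full-length PKC βII (30 ng/ml in pre-dilution) with PS/DAG/Ca2+ activators, pH 7.4; fluorescein peptide and ATP at 3 μM and 120 μM before mixing. Reaction ran 60 min at 32 °C, was EDTA-stopped, and was read by mobility shift. % inhibition came from product/(substrate+product) peak heights, tested at 1.14 μM final.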
T1 sequence (P05771 1-673 isoform P05771-2): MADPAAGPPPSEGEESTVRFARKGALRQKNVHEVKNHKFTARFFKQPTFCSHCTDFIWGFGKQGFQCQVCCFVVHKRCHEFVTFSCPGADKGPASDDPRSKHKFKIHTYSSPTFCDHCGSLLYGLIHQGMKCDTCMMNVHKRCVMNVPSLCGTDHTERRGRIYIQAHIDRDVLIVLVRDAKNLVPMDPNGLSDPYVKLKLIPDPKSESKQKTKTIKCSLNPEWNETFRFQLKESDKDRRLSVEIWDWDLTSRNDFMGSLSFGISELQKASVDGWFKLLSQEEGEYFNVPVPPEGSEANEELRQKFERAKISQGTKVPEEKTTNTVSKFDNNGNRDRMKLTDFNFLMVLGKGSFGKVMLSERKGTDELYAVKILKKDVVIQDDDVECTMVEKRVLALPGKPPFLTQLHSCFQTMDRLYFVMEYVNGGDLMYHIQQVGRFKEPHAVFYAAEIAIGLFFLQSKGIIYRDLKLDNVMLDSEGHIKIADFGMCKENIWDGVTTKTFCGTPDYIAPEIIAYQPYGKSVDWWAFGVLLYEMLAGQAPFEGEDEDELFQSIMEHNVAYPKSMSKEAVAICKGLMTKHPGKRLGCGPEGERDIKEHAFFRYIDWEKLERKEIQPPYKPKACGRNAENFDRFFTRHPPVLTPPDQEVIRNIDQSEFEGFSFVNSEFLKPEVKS
With `Cc1n[nH]c2nc(-c3ccc(O)c(F)c3)cc(C(=O)N3CCN[C@@H](CC(C)C)C3)c12` [Example 351, [6-(3-Fluoro-4-hydroxy-phenyl)-3-methyl-1H-pyrazolo[3,4-b]pyridin-4-yl]-((S)-3-isobutyl-piperazin-1-yl)-methanone], the inhibition – broadly, the percentage by which the read-out fell short of the control – at 1.14 µM was 88%.

For the molecule `Cc1n[nH]c2nc(-c3ccc(O)cc3)cc(C(=O)N3CCOC4(CCCNC4)C3)c12` (stereo not drawn) [Example 258, [6-(4-Hydroxy-phenyl)-3-methyl-1H-pyrazolo[3,4-b]pyridin-4-yl]-(1-oxa-4,8-diaza-spiro[5.5]undec-4-yl)-methanone], the inhibition at 1.14 µM was 78%.

Consider `Cc1n[nH]c2nc(-c3ccc(O)cc3)cc(C(=O)NC3CC(C)(C)N(C)C(C)(C)C3)c12` [Example 276, 6-(4-Hydroxy-phenyl)-3-methyl-1H-pyrazolo[3,4-b]pyridine-4-carboxylic acid (1,2,2,6,6-pentamethyl-piperidin-4-yl)-amide], for which the inhibition at 1.14 µM came out at 66%.

As for `CCCC1(NC(=O)c2cc(-c3ccc(O)cc3)nc3[nH]nc(C)c23)CCNC1` (stereo not drawn) [Example 125, 6-(4-Hydroxy-phenyl)-3-methyl-1H-pyrazolo[3,4-b]pyridine-4-carboxylic acid (3-propyl-pyrrolidin-3-yl)-amide], the inhibition at 1.14 µM is 52%.

Take `Cc1n[nH]c2nc(-c3ccc(O)c(F)c3)cc(C(=O)N3CCN[C@@H](C(C)C)C3)c12` [Example 326, [6-(3-Fluoro-4-hydroxy-phenyl)-3-methyl-1H-pyrazolo[3,4-b]pyridin-4-yl]-((S)-3-isopropyl-piperazin-1-yl)-methanone]: the inhibition at 1.14 µM is 83%.

Consider `COC(=O)[C@H]1CNCCN1C(=O)c1cc(-c2ccc(O)c(F)c2)nc2[nH]nc(C)c12` [Example 328, (R)-1-[6-(3-Fluoro-4-hydroxy-phenyl)-3-methyl-1H-pyrazolo[3,4-b]pyridine-4-carbonyl]-piperazine-2-carboxylic acid methyl ester], for which the inhibition at 1.14 µM was 80%.

`Cc1n[nH]c2nc(-c3ccc(O)cc3F)cc(C(=O)N3CC(C)(C)NCC34CCCC4)c12` [Example 437, (8,8-Dimethyl-6,9-diaza-spiro[4.5]dec-6-yl)-[6-(2-fluoro-4-hydroxy-phenyl)-3-methyl-1H-pyrazolo[3,4-b]pyridin-4-yl]-methanone]: the inhibition at 1.14 µM worked out at 99%.

`CO[C@H]1CNC[C@@H]1NC(=O)c1cc(-c2ccc(O)cc2C)nc2[nH]nc(C)c12` [Example 143, 6-(4-Hydroxy-2-methyl-phenyl)-3-methyl-1H-pyrazolo[3,4-b]pyridine-4-carboxylic acid ((3S,4S)-4-methoxy-pyrrolidin-3-yl)-amide]: the inhibition at 1.14 µM came out at 84%.

In the case of `Cc1n[nH]c2nc(-c3ccc(O)cc3)cc(C(=O)N3CCCN(C(=O)c4ccncc4)CC3)c12` [Example 387, [6-(4-Hydroxy-phenyl)-3-methyl-1H-pyrazolo[3,4-b]pyridin-4-yl]-[4-(pyridine-4-carbonyl)-[1,4]diazepan-1-yl]-methanone], the inhibition at 1.14 µM turned out to be 39%.

With `Cc1n[nH]c2nc(-c3ccc(O)c(F)c3)cc(C(=O)N3C[C@H]4CC[C@@H](C3)C4N)c12` (stereo partly drawn) [Example 310, (8-Amino-3-aza-bicyclo[3.2.1]oct-3-yl)-[6-(3-fluoro-4-hydroxy-phenyl)-3-methyl-1H-pyrazolo[3,4-b]pyridin-4-yl]-methanone], the inhibition at 1.14 µM was 91%.

With `Cc1n[nH]c2nc(-c3ccc(O)cc3)cc(C(=O)N3CCNC[C@@H]3c3ccccc3)c12` [Example 27, [6-(4-Hydroxy-phenyl)-3-methyl-1H-pyrazolo[3,4-b]pyridin-4-yl]-((S)-2-phenyl-piperazin-1-yl)-methanone], the inhibition at 1.14 µM worked out at 95%.

With `Cc1n[nH]c2nc(-c3ccc(O)c(F)c3)cc(C(=O)N[C@@H]3[C@H]4CC[C@H](C4)[C@H]3CN)c12` (stereo in doubt) [Example 311, 6-(3-Fluoro-4-hydroxy-phenyl)-3-methyl-1H-pyrazolo[3,4-b]pyridine-4-carboxylic acid (3-aminomethyl-bicyclo[2.2.1]hept-2-yl)-amide], the inhibition at 1.14 µM amounted to 74%.

As to `CCc1n[nH]c2nc(-c3ccc(O)cc3)cc(C(=O)NC3CC4CCCC(C3)N4C)c12` (stereo not drawn) [Example 184, 3-Ethyl-6-(4-hydroxy-phenyl)-1H-pyrazolo[3,4-b]pyridine-4-carboxylic acid (9-methyl-9-aza-bicyclo[3.3.1]non-3-yl)-amide], the inhibition at 1.14 µM is 22%.

Consider `Cc1n[nH]c2nc(-c3ccc(O)c(F)c3)cc(C(=O)NC3CCN(C)CC3)c12` [Example 319, 6-(3-Fluoro-4-hydroxy-phenyl)-3-methyl-1H-pyrazolo[3,4-b]pyridine-4-carboxylic acid (1-methyl-piperidin-4-yl)-amide], for which the inhibition at 1.14 µM is 59%.

For `Cc1n[nH]c2nc(-c3ccc(O)cc3)cc(C(=O)N3CCN(C(C)C)CC3)c12` [Example 36, [6-(4-Hydroxy-phenyl)-3-methyl-1H-pyrazolo[3,4-b]pyridin-4-yl]-(4-isopropyl-piperazin-1-yl)-methanone], the inhibition at 1.14 µM is 40%.

For the molecule `Cc1n[nH]c2nc(-c3ccc(O)cc3)cc(C(=O)N[C@@H]3CCC(=O)NC3)c12` [Example 208, 6-(4-Hydroxy-phenyl)-3-methyl-1H-pyrazolo[3,4-b]pyridine-4-carboxylic acid ((R)-6-oxo-piperidin-3-yl)-amide], the inhibition at 1.14 µM was found to be 88%.

Take `Cc1n[nH]c2nc(-c3ccc(O)cc3)cc(C(=O)N(C)C3CCNCC3)c12` [Example 241, 6-(4-Hydroxy-phenyl)-3-methyl-1H-pyrazolo[3,4-b]pyridine-4-carboxylic acid methyl-piperidin-4-yl-amide]: the inhibition at 1.14 µM was found to be 88%.

For the molecule `Cc1n[nH]c2nc(-c3ccc(O)cc3)cc(C(=O)N3CCNCC3c3c(F)cccc3F)c12` (stereo not drawn) [Example 100, [2-(2,6-Difluoro-phenyl)-piperazin-1-yl]-[6-(4-hydroxy-phenyl)-3-methyl-1H-pyrazolo[3,4-b]pyridin-4-yl]-methanone], the inhibition at 1.14 µM was found to be 96%.

Turning to `Cc1cc(O)ccc1-c1cc(C(=O)N2CCNC[C@H]2c2ccccc2)c2c(C)n[nH]c2n1` [Example 150, [6-(4-Hydroxy-2-methyl-phenyl)-3-methyl-1H-pyrazolo[3,4-b]pyridin-4-yl]-((R)-2-phenyl-piperazin-1-yl)-methanone], the inhibition at 1.14 µM was found to be 100%.

As for `CCCC1(N)CCN(C(=O)c2cc(-c3ccc(O)cc3)nc3[nH]nc(C)c23)C1` (stereo not drawn) [Example 47, (3-Amino-3-propyl-pyrrolidin-1-yl)-[6-(4-hydroxy-phenyl)-3-methyl-1H-pyrazolo[3,4-b]pyridin-4-yl]-methanone], the inhibition at 1.14 µM was found to be 70%.

For the molecule `CCC[C@@H]1CN(C(=O)c2cc(-c3ccc(O)cc3F)nc3[nH]nc(C)c23)[C@@H](C)CN1` [Example 448, [6-(2-Fluoro-4-hydroxy-phenyl)-3-methyl-1H-pyrazolo[3,4-b]pyridin-4-yl]-((2S,5R)-2-methyl-5-propyl-piperazin-1-yl)-methanone], the inhibition at 1.14 µM is 99%.

In the case of `Cc1n[nH]c2nc(-c3ccc(O)cc3)cc(C(=O)N3CCC4(CCNCC4)C3)c12` [Example 260, (2,8-Diaza-spiro[4.5]dec-2-yl)-[6-(4-hydroxy-phenyl)-3-methyl-1H-pyrazolo[3,4-b]pyridin-4-yl]-methanone], the inhibition at 1.14 µM came out at 78%.

`Cc1n[nH]c2nc(-c3ccc(O)cc3)cc(C(=O)N3CC4(CCNCC4)C3)c12` [Example 234, (2,7-Diaza-spiro[3.5]non-2-yl)-[6-(4-hydroxy-phenyl)-3-methyl-1H-pyrazolo[3,4-b]pyridin-4-yl]-methanone]: the inhibition at 1.14 µM was determined as 94%.

As for `Cc1n[nH]c2nc(-c3ccc(O)cc3F)cc(C(=O)N3C[C@@H](C)N(CC4CCNCC4)C[C@@H]3C)c12` [Example 453, ((2S,5R)-2,5-Dimethyl-4-piperidin-4-ylmethyl-piperazin-1-yl)-[6-(2-fluoro-4-hydroxy-phenyl)-3-methyl-1H-pyrazolo[3,4-b]pyridin-4-yl]-methanone], the inhibition at 1.14 µM was 90%.

As to `Cc1n[nH]c2nc(-c3ccc(O)c(F)c3)cc(C(=O)N3CCC(N)CC3)c12` [Example 304, (4-Amino-piperidin-1-yl)-[6-(3-fluoro-4-hydroxy-phenyl)-3-methyl-1H-pyrazolo[3,4-b]pyridin-4-yl]-methanone], the inhibition at 1.14 µM came to 91%.

In the case of `Cc1cc(O)ccc1-c1cc(C(=O)N2CCNCC2c2ccccc2F)c2c(C)n[nH]c2n1` (stereo not drawn) [Example 151, [2-(2-Fluoro-phenyl)-piperazin-1-yl]-[6-(4-hydroxy-2-methyl-phenyl)-3-methyl-1H-pyrazolo[3,4-b]pyridin-4-yl]-methanone], the inhibition at 1.14 µM was 96%.

For `Cc1n[nH]c2nc(-c3ccc(O)cc3)cc(C(=O)N[C@@H]3CCC[C@H]3N)c12` [Example 120, 6-(4-Hydroxy-phenyl)-3-methyl-1H-pyrazolo[3,4-b]pyridine-4-carboxylic acid ((1R,2R)-2-amino-cyclopentyl)-amide], the inhibition at 1.14 µM worked out at 88%.

With `Cc1n[nH]c2nc(-c3ccc(O)cc3F)cc(C(=O)N3CCC(N)(C(F)(F)F)C3)c12` (stereo not drawn) [Example 432, (3-Amino-3-trifluoromethyl-pyrrolidin-1-yl)-[6-(2-fluoro-4-hydroxy-phenyl)-3-methyl-1H-pyrazolo[3,4-b]pyridin-4-yl]-methanone], the inhibition at 1.14 µM came to 42%.

In the case of `CCc1n[nH]c2nc(-c3ccc(O)cc3)cc(C(=O)N3C[C@]4(C)CN(C)C[C@](C)(C3)C4O)c12` (stereo partly drawn) [Example 179, [3-Ethyl-6-(4-hydroxy-phenyl)-1H-pyrazolo[3,4-b]pyridin-4-yl]-((1S,5R)-9-hydroxy-1,5,7-trimethyl-3,7-diaza-bicyclo[3.3.1]non-3-yl)-methanone], the inhibition at 1.14 µM was determined as 55%.

With `Cc1n[nH]c2nc(-c3ccc(O)cc3)cc(C(=O)NC(CN)c3ccccc3)c12` (stereo not drawn) [Example 104, 6-(4-Hydroxy-phenyl)-3-methyl-1H-pyrazolo[3,4-b]pyridine-4-carboxylic acid (2-amino-1-phenyl-ethyl)-amide], the inhibition at 1.14 µM was found to be 94%.

For the origin of these results see patent US8686150B2 (Sanofi, priority 2011, dated 2014).
